Patent US20260007634A1, “PHARMACEUTICAL COMPOSITIONS FOR THE TREATMENT OF ALLERGIC DISEASES” (KINKI UNIVERSITY, priority 2022, published 2026)

Tests used:
Assay type in all cases: in vivo, mouse
[1] = system: Balb/c mice with ovalbumin-induced allergic rhinitis; test: Sneezing, ovalbumin-induced allergic rhinitis mice; details: OVA allergic rhinitis; oral daily 8 days from day 20, 10 mg/kg (dexamethasone 2 mg/kg); measured day 27; vs vehicle group
Method: (§1) A 0.2 mL dose of 50 μg ovalbumin (OVA) and 2 mg Alum mixture was administered to 6-week-old female Balb/c mice (Japan SLC Inc.) (day 0 of the example). Alum was used as an adjuvant. Seven days later and 14 days later, the Balb/c mice were immunized again with 0.2 mL injections of the above mixture. Starting on day 20, mice were orally treated with 10 mg/kg of norathyriol, 10 mg/kg of mangiferin 8a, 10 mg/kg of tofacitinib (JAK inhibitor), 2 mg/kg of dexamethasone (steroid) and 10 mg/kg of olopatadine (antihistamine) daily for 8 consecutive days. Starting on day 21, 400 μg OVA was administered intranasally, and sneezing was measured on day 27. Note that tofacitinib, dexamethasone, and olopatadine are currently in clinical use in allergic rhinitis and were used as control drugs in this example.
The group that was just immunized with OVA is called the subject group, the one that received norathyriol is called the norathyriol group, the one that received mangiferin 8a is called the mangiferin 8a group, the one that received tofacitinib is called the tofacitinib group, the one that received dexamethasone is called the dexamethasone group, and the one that received olopatadine is called the olopatadine group. Each group consisted of five animals.

OVA-IgE antibody = test: Serum OVA-IgE antibody ELISA, allergic rhinitis mice; details: serum day 28, oral 10 mg/kg (dexamethasone 2 mg/kg), control 2.7, vehicle 69
Method: as §1, with “nose-scratching behavior” for “sneezing”
Serum was collected from day 28 mice in Examples 6 and 7, and OVA-IgE antibody production was measured by enzyme-linked immunosorbent assay (ELISA). This assay was performed using a mouse OVA-IgE antibody ELISA kit (FUJIFILM Wako).

IgE antibody = test: Serum IgE antibody ELISA, allergic rhinitis mice; details: OVA allergic rhinitis; serum day 28; oral 10 mg/kg (dexamethasone 2 mg/kg); control 58, vehicle 111
Method: as §1, with “nose-scratching behavior” for “sneezing”
Serum was collected from day 28 mice in Examples 6 and 7, and IgE antibody production was measured by enzyme-linked immunosorbent assay (ELISA). This assay was performed using a mouse IgE antibody ELISA kit (R&D).

IL-4 [2] = test: Serum IL-4 ELISA, bronchial asthma mice; details: OVA bronchial asthma; serum day 28; oral 10 mg/kg (dexamethasone 2 mg/kg); control 282, vehicle 863
Method: as §1, with “cough” for “sneezing”
Serum was collected from day 28 mice in Examples 14, and IL-4 production was measured by enzyme-linked immunosorbent assay (ELISA). This assay was performed using a mouse IL-4 ELISA kit (R&D).

IL-5 [3] = test: Serum IL-5 ELISA, bronchial asthma mice; details: OVA bronchial asthma; serum day 28; oral 10 mg/kg (dexamethasone 2 mg/kg); control 80, vehicle 992
Method: as §1, with “cough” for “sneezing”
Serum was collected from day 28 mice in Examples 14, and IL-5 production was measured by enzyme-linked immunosorbent assay (ELISA). This assay was performed using a mouse IL-5 ELISA kit (R&D).

IL-4 [4] = test: Serum IL-4 ELISA, cedar pollinosis mice; details: serum day 28, oral 10 mg/kg (dexamethasone 2 mg/kg), control 55, vehicle 374
Method: A 0.2 mL dose of 100 μg cedar pollen and 1 mg Alum mixture was administered to 6-week-old female Balb/c mice (Japan SLC Inc.) (day 0 of the example). Alum was used as an adjuvant. Seven days later and 14 days later, the Balb/c mice were immunized again with 0.2 mL injections of the above mixture. Starting on day 20, mice were orally treated with 10 mg/kg of norathyriol, 10 mg/kg of mangiferin 8a, 10 mg/kg of tofacitinib (JAK inhibitor), 2 mg/kg of dexamethasone (steroid) and 10 mg/kg of olopatadine (antihistamine) daily for 8 consecutive days. Starting on day 21, 500 μg cedar pollen was administered intranasally, and nose-scratching behavior was measured on day 27. […]
Serum was collected from day 28 mice in Examples 28 and 29, and IL-4 production was measured by enzyme-linked immunosorbent assay (ELISA). This assay was performed using a mouse IL-4 ELISA kit (R&D).

IL-5 [5] = test: Serum IL-5 ELISA, cedar pollinosis mice; details: serum day 28, oral 10 mg/kg (dexamethasone 2 mg/kg), control 77, vehicle 708
Method: A 0.2 mL dose of 100 μg cedar pollen and 1 mg Alum mixture was administered to 6-week-old female Balb/c mice (Japan SLC Inc.) (day 0 of the example). Alum was used as an adjuvant. Seven days later and 14 days later, the Balb/c mice were immunized again with 0.2 mL injections of the above mixture. Starting on day 20, mice were orally treated with 10 mg/kg of norathyriol, 10 mg/kg of mangiferin 8a, 10 mg/kg of tofacitinib (JAK inhibitor), 2 mg/kg of dexamethasone (steroid) and 10 mg/kg of olopatadine (antihistamine) daily for 8 consecutive days. Starting on day 21, 500 μg cedar pollen was administered intranasally, and nose-scratching behavior was measured on day 27. Note that tofacitinib, dexamethasone, and olopatadine are currently in clinical use in cedar pollinosis and were used as control drugs in this example.
Serum was collected from day 28 mice in Examples 28 and 29, and IL-5 production was measured by enzyme-linked immunosorbent assay (ELISA). This assay was performed using a mouse IL-5 ELISA kit (R&D).

Row | SMILES | number of sneezing [1] | amount of OVA-IgE antibody (OVA-IgE antibody) | amount of IgE antibody (IgE antibody) | amount of IL-4 (IL-4 [2]) | amount of IL-5 (IL-5 [3]) | amount of IL-4 (IL-4 [4]) | amount of IL-5 (IL-5 [5])
1 | CN(C)CC/C=C1/c2ccccc2COc2ccc(CC(=O)O)cc21 [olopatadine] | significantly decreased the number of sneezing | 67 U/mL | 118 ng/mL | 781 pg/mL | 866 pg/mL | 263 pg/mL | 438 pg/mL
2 | C[C@@H]1C[C@H]2[C@@H]3CCC4=CC(=O)C=C[C@]4(C)[C@@]3(F)[C@@H](O)C[C@]2(C)[C@@]1(O)C(=O)CO [dexamethasone] |  | 18 U/mL | 40 ng/mL | 359 pg/mL | 286 pg/mL | 78 pg/mL | 182 pg/mL
3 | O=c1c2cc(O)c(O)cc2oc2cc(O)cc(O)c12 [norathyriol, 1,3,6,7-tetrahydroxyxanthone] | significantly decreased the number of sneezing | 36 U/mL | 77 ng/mL | 545 pg/mL | 601 pg/mL | 111 pg/mL | 307 pg/mL
4 | C[C@@H]1CCN(C(=O)CC#N)C[C@@H]1N(C)c1ncnc2[nH]ccc12 [tofacitinib] | significantly decreased the number of sneezing | 50 U/mL | 94 ng/mL | 831 pg/mL | 833 pg/mL | 213 pg/mL | 428 pg/mL
